# Test results published in patent publication US8536168B2 (Novartis AG, priority 2007, dated 2013).
# Like-named read-outs stand apart in the source and are kept apart here.
# Key:
# Gli-luciferase activity = test: Reporter gene assay (RGA) in TMHh12 cells, antagonism of Gli-luciferase activity in the presence of a Smo agonist; type: cell-based
# Method: Activity of the compounds was evaluated using a reporter gene assay (RGA) in TMHh12 cells.
# [1] = target: mouse Smoothened receptor (Mus musculus, UniProt P56726); test: Smo binding assay, displacement of radio-labeled smoothened agonist, filter binding format (mouse); settings: displacement of small molecule agonist of Smoothened, read-out: Mouse Smo bdg., IC50
# Sequence of mouse Smoothened receptor (P56726 33-793): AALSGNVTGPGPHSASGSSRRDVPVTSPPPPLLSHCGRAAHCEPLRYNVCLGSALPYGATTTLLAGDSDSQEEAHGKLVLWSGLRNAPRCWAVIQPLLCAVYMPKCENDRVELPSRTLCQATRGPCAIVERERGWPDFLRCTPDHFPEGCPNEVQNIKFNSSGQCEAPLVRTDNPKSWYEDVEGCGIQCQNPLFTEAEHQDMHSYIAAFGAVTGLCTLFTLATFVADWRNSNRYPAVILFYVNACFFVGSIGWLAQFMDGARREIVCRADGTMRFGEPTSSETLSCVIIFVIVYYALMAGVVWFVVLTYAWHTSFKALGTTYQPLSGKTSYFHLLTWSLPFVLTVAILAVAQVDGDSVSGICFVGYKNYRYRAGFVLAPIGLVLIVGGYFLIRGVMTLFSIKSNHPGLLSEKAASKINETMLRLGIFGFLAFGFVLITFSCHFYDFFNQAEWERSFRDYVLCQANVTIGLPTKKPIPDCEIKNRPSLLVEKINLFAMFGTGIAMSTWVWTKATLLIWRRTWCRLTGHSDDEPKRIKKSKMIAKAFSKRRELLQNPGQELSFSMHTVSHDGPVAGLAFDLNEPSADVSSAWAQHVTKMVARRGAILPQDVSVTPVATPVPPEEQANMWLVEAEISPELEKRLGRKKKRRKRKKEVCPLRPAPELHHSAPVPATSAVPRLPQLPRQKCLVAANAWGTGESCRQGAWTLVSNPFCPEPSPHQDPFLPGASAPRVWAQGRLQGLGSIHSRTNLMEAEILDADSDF
# Text: A Smo binding assay was developed using radio-labeled smoothened agonist for compound competition.
# [2] = target: human Smoothened receptor (Homo sapiens, UniProt Q99835); test: Smo binding assay, displacement of radio-labeled smoothened agonist, filter binding format (human); settings: displacement of small molecule agonist of Smoothened, read-out: Human Smo bdg., IC50
# Sequence of human Smoothened receptor (Q99835 28-787): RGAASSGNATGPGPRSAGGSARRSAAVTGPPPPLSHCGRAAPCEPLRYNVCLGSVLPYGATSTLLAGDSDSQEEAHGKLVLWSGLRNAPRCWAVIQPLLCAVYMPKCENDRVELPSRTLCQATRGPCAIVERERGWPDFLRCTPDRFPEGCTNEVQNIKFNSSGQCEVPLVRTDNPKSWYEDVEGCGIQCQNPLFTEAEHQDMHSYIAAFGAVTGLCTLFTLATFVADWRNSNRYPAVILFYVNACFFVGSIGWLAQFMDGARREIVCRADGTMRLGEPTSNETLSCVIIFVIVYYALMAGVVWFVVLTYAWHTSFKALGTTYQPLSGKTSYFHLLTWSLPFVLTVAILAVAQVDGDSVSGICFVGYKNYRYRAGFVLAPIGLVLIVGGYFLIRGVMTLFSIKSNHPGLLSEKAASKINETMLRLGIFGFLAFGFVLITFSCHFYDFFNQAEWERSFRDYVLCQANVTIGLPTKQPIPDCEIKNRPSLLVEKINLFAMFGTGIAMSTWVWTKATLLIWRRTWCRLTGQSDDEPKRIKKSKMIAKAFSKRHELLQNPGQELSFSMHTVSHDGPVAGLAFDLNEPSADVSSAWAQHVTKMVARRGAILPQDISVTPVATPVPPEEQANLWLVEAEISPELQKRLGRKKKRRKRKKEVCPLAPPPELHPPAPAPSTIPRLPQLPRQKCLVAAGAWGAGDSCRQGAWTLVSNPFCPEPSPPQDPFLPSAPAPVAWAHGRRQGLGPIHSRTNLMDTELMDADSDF
# Text: A Smo binding assay was developed using radio-labeled smoothened agonist for compound competition. Table 9 lists the IC50 for displacement of a small molecule agonist of Smoothened determined in a filter binding format for the mouse and human Smoothened receptor.
# [3] = 25 nM small molecule Smo agonist, read-out: RGA (25 nM Smo agonist) IC50
# [4] = read-out: RGA (1 nM Smo agonist) IC50, 1 nM small molecule Smo agonist
IC50 (Gli-luciferase activity; [3]) [nM],IC50 (Gli-luciferase activity; [4]) [nM],IC50 [1] [nM],IC50 [2] [nM],Structure (SMILES)
100 to 1000,100 to 1000,< 100,< 100,FC1(F)CCN(Cc2ccc(N3CCN(c4nnc(Cc5ccccc5)c5ccccc45)CC3)nc2)CC1 [Example 228]
10000 to 40000,100 to 1000,100 to 1000,100 to 1000,COC(=O)c1ccc(Cc2nnc(N3CCN(c4ccc(C#N)cn4)CC3)c3ccccc23)cc1 [Example 179]
100 to 1000,< 100,< 100,< 100,OC1(c2ccc(N3CCN(c4nnc(Cc5ccccc5)c5ccccc45)CC3)nc2)CC1 [Example 135]
100 to 1000,100 to 1000,< 100,< 100,OC(c1ccc(N2CCN(c3nnc(Cc4ccccc4)c4ccccc34)CC2)nc1)C1CC1 (stereo not shown) [Example 219]
100 to 1000,< 100,100 to 1000,100 to 1000,CP(C)(=O)c1ccc(N2CCN(c3nnc(Cc4ccccc4)c4ccccc34)CC2)nc1 [Example 107]
100 to 1000,100 to 1000,< 100,< 100,CCOC(=O)c1ccc(N2CCN(c3nnc(Cc4ccc(Cl)cc4Cl)c4ccccc34)CC2)nc1 [Example 186]
1000 to 10000,100 to 1000,< 100,< 100,CCOC(=O)c1ccc(N2CCN(c3nnc(Cc4cccc(F)c4)c4ccccc34)CC2)nc1 [Example 185]
1000 to 10000,100 to 1000,1000 to 10000,10000 to 40000,NC1CN(C(=O)c2ccc(N3CCN(c4nnc(Cc5ccccc5)c5ccccc45)CC3)nc2)C1 [Example 54w]
< 100,< 100,< 100,< 100,"CC1(c2ccc(N3CCN(c4nnc(Cc5ccccc5)c5ccccc45)CC3)nc2)OCCO1 [Example 164, 1-Benzyl-4-(4-(5-(2-methyl-1,3-dioxolan-2-yl)pyridin-2-yl)piperazin-1-yl)phthalazine]"
< 100,< 100,< 100,< 100,CCOC(=O)c1cnc(N2CCN(c3nnc(Cc4ccccc4)c4ccccc34)CC2)nc1C(F)(F)F [Example 137]
1000 to 10000,< 100,< 100,100 to 1000,"N#Cc1ccc(N2CCN(c3nnc(Cc4ccccc4)c4ccccc34)CC2)nc1 [Example 1, 6-[4-(4-Benzyl-phthalazin-1-yl)-piperazin-1-yl]-nicotinonitrile]"
100 to 1000,100 to 1000,< 100,< 100,"FC(F)(F)c1ccc(N2CCN(c3nnc(Cc4ccccc4)c4c3C=CCC4)CC2)nc1 [Example 240, 4-Benzyl-1-(4-(5-(trifluoromethyl)pyridin-2-yl)piperazin-1-yl)-5,6-dihydrophthalazine]"
100 to 1000,< 100,100 to 1000,100 to 1000,CN(CCO)C(=O)c1ccc(N2CCN(c3nnc(Cc4ccc(F)cc4F)c4ccccc34)CC2)nc1 [Example 199]
1000 to 10000,100 to 1000,< 100,< 100,COC(=O)c1ccc(N2CCN(c3nnc(Cc4ccccc4)c4ccccc34)CC2)nn1 [Example 139]
< 100,< 100,< 100,< 100,"CC(C)(N)c1ccc(N2CCN(c3nnc(Cc4ccccc4)c4ccccc34)CC2)nc1 [Example 120, 2-(6-(4-(4-Benzylphthalazin-1-yl)piperazin-1-yl)pyridin-3-yl)propan-2-amine]"
1000 to 10000,1000 to 10000,100 to 1000,1000 to 10000,"COc1ccc(CN2Cc3c(Cc4ccccc4)nnc(N4CCN(c5ccc(C(F)(F)F)cn5)CC4)c3C2)cc1 [Example 243, 1-benzyl-6-(4-methoxybenzyl)-4-(4-(5-(trifluoromethyl)pyridin-2-yl)piperazin-1-yl)-6,7-dihydro-5H-pyrrolo[3,4-d]pyridazine]"
10000 to 40000,1000 to 10000,1000 to 10000,1000 to 10000,O=C(c1ccc(C(F)(F)F)cc1)N1CCC(c2cn(Cc3ccccc3)c3ccccc23)CC1 [Example 105]
1000 to 10000,100 to 1000,100 to 1000,100 to 1000,c1ccc(Cc2nnc(N3CCC(c4c[nH]c5ccccc45)CC3)c3ccccc23)cc1 [Example 113]
100 to 1000,< 100,< 100,< 100,c1ccc(Cc2nnc(N3CCC(c4nc5ccccc5[nH]4)CC3)c3ccccc23)cc1 [Example 114]
100 to 1000,< 100,< 100,< 100,CC(C)(NC(=O)OCc1ccccc1)c1ccc(N2CCN(c3nnc(Cc4ccccc4)c4ccccc34)CC2)nc1 [Example 123]
1000 to 10000,100 to 1000,100 to 1000,100 to 1000,"COCC(=O)OCc1ccc(N2CCN(c3nnc(Cc4ccccc4)c4ccccc34)CC2)nc1 [Example 159, Methoxy-acetic acid 6-[4-(4-benzyl-phthalazin-1-yl)-piperazin-1-yl]-pyridin-3-ylmethyl ester]"

IC50 (Gli-luciferase activity; [3]) [nM],IC50 (Gli-luciferase activity; [4]) [nM],IC50 [1] [nM],IC50 [2] [nM],Structure (SMILES)
100 to 1000,< 100,100 to 1000,100 to 1000,Fc1cc(Cl)cnc1N1CCN(c2nnc(Cc3ccccc3)c3ccccc23)CC1 [Example 49]
100 to 1000,< 100,< 100,100 to 1000,N#Cc1ccc(N2CCN(c3nnc(Cc4cccc(Cl)c4)c4ccccc34)CC2)nc1 [Example 60]
1000 to 10000,< 100,100 to 1000,100 to 1000,FC(F)(F)c1ccc(N2CCC(c3cn(Cc4ccccc4)c4ccccc34)CC2)nc1 [Example 97]
1000 to 10000,100 to 1000,1000 to 10000,1000 to 10000,Fc1cnc(F)c(N2CCN(c3nnc(Cc4ccccc4)c4ccccc34)CC2)c1 [Example 51]
< 100,< 100,< 100,< 100,CC(C)C(O)c1ccc(N2CCN(c3nnc(Cc4ccccc4)c4ccccc34)CC2)nc1 (stereo not shown) [Example 220]
1000 to 10000,100 to 1000,1000 to 10000,1000 to 10000,c1ccc(Cc2nnc(N3CCN(c4ccccc4)CC3)c3ccccc23)cc1 [Example 106]
,100 to 1000,100 to 1000,100 to 1000,Cc1cc(N2CCN(c3ccc(C#N)cn3)CC2)nnc1Cc1ccc(F)cc1 [Example 85]
10000 to 40000,1000 to 10000,1000 to 10000,1000 to 10000,"Cc1c(Cc2ccccc2)nnc(N2CCN(c3ccc(C(F)(F)F)cn3)CC2)c1CNCc1ccccc1 [Example 241, N-benzyl-1-(6-benzyl-5-methyl-3-(4-(5-(trifluoromethyl)pyridin-2-yl)piperazin-1-yl)pyridazin-4-yl)methanamine]"
100 to 1000,< 100,< 100,100 to 1000,COCCC(=O)NC(C)(C)c1ccc(N2CCN(c3nnc(Cc4ccccc4)c4ccccc34)CC2)nc1 [Example 122]
1000 to 10000,100 to 1000,1000 to 10000,1000 to 10000,Cc1nc(N2CCN(c3nnc(Cc4ccccc4)c4ccccc34)CC2)ccc1C#N [Example 130]
100 to 1000,< 100,< 100,< 100,"C[C@H]1CN(c2nnc(Cc3ccccc3)c3ccccc23)CCN1c1ccc(C#N)cn1 [Example 143, 6-[(S)-4-(4-Benzyl-phthalazin-1-yl)-2-methyl-piperazin-1-yl]-nicotinonitrile]"
100 to 1000,< 100,100 to 1000,100 to 1000,c1ccc(Cc2nnc(N3CCN(c4ccc(CNC5COC5)cn4)CC3)c3ccccc23)cc1 [Example 230]
100 to 1000,< 100,< 100,< 100,FC(F)(F)c1ccc(N2CCN(c3nnc(Cc4ccccc4)c4ccccc34)CC2)nc1 [Example 2]
100 to 1000,< 100,< 100,< 100,CCOC(=O)c1ccc(N2CCN(c3nnc(Cc4ccccc4)c4ccccc34)CC2)cc1 [Example 5]
1000 to 10000,100 to 1000,100 to 1000,1000 to 10000,COc1ccccc1Cc1nnc(N2CCN(c3ccc(C#N)cn3)CC2)c2ccccc12 [Example 175]
100 to 1000,< 100,100 to 1000,100 to 1000,O=S(=O)(c1ccc(N2CCN(c3nnc(Cc4ccccc4)c4ccccc34)CC2)nc1)N1CCCC1 [Example 133]
,100 to 1000,100 to 1000,100 to 1000,Cc1cc(N2CCN(c3ccc(C#N)cn3)CC2)nnc1Cc1ccccc1 [Example 87]
100 to 1000,100 to 1000,100 to 1000,100 to 1000,N#Cc1ccc(N2CCN(c3nnc(Cc4cccc(F)c4)c4ccccc34)CC2)nc1 [Example 182]
100 to 1000,< 100,< 100,< 100,CCOC(=O)c1ccc(N2CCN(c3nnc(Cc4ccccc4)c4ccccc34)CC2)nc1 [Example 54]
100 to 1000,< 100,< 100,100 to 1000,FC1CCN(Cc2ccc(N3CCN(c4nnc(Cc5ccccc5)c5ccccc45)CC3)nc2)CC1 [Example 227]
100 to 1000,< 100,< 100,< 100,"O=C(Cc1ccc(N2CCN(c3nnc(Cc4ccccc4)c4ccccc34)CC2)nc1)N1CCCC1 [Example 171, 2-{6-[4-(4-Benzyl-phthalazin-1-yl)-piperazin-1-yl]-pyridin-3-yl}-1-pyrrolidin-1-yl-ethanone]"
